Non-standard residues stand in square brackets, D forms with d. Residues, ends and D or L forms follow the SMILES beside them. *: point of attachment. Sta = CC(C)C[C@H](N)[C@@H](O)CC(=O)O; Decanoyl = CCCCCCCCCC(=O)*; Isovaleryl = CC(C)CC(=O)*; CH2Cl = ClC*
What was measured:
[1] = system: latent TGF-β activation in human platelets; experiment: TGF-β activation by thrombin-activated human platelets, active and total TGF-β by PAI/L bioassay; format: cell-based; conditions: for latent TGF-β activation: platelets pre-incubated with inhibitor before thrombin stimulation, platelet releasates, FIG. 1 panels A and B
[2] = system: latent TGF-β activation in platelet-free releasates; experiment: TGF-β activation in platelet-free releasates of activated platelets, PAI/L bioassay; format: biochemical, human; conditions: inhibitor added to platelet-free releasates, 30 mm at 37° C.; FIG. 2B
Method: In a further experiment, furin inhibitors were added to platelet-free releasates of activated platelets, and activation was allowed to continue in the absence of platelets for […] at 37° C. The results of this experiment are shown in panel B of FIG. 2. Active TGF-β levels in the controls were 77 pg/ml (dec-RVKR-cmk data (SEQ ID NO:1)) and 104 pg/ml (hexaarginine data (SEQ ID NO: 7)). Incubation on ice reduced activation in the controls to approximately 56% (data not shown). Data represent the mean values of three independent experiments assayed in triplicate.

[3] = system: furin-like enzyme activity; experiment: Furin-like enzyme activity in platelet lysates and releasates, fluorogenic furin substrate pyr-RTKR-amc; format: biochemical, human; conditions: hexaarginine 200 μM, dec-RVKR-cmk 150 μM, FIG. 3; for furin-like enzyme activity in cell lysates: hypotonic lysates of activated platelets; for furin-like enzyme activity in releasates: releasates of activated platelets
Method: (§1) Platelets collected as described above were resuspended in distilled water and incubated at room temperature for 5 minutes. Lysis was stopped by addition of an equal volume of 2× serum-free DME medium containing 0.2% pyrogen poor bovine serum albumen. The lysate was cleared by centrifugation at 12,000 g for 10 minutes at room temperature before use.
Releasates or hypotonic lysates of activated platelets were assayed using the furin substrate, pyr-RTKR-amc (SEQ ID NO:3) in the absence or presence of the furin inhibitors, hexaarginine (SEQ ID NO: 7) (200 μM) or dec-RVKR-cmk (SEQ ID NO:1) (150 μM). Values were corrected for substrate-independent endogenous fluorescence (control without substrate) as well as for spontaneous substrate hydrolysis (buffer control). Mean values±S.E.M. of 2-3 separate experiments assayed in duplicate are shown.
The presence of furin-like enzyme activity in both hypotonic lysates and releasates of human platelets was analysed using the fluorogenic furin substrate, pyr-RTKR-amc (SEQ ID NO:3). Platelet lysates contained a furin-like enzyme activity, part of which (approximately 12%) was released upon thrombin stimulation. Enzyme activity in cell lysates and releasates was inhibited by dec-RVKR-cmk (SEQ ID NO:1) and hexa-L-arginine (SEQ ID NO: 7) (FIG. 3).

[4] = system: latent TGF-β activation in human platelets; experiment: TGF-β activation by thrombin-activated human platelets, active and total TGF-β by PAI/L bioassay; format: cell-based; conditions: for active TGF-β in releasates: thrombin-stimulated platelets, hexaarginine pre-incubated, dec-RVKR-cmk added, FIG. 2 panel A
Method: Peripheral venous blood samples from healthy adult volunteers (aged 21 to 45) were taken into 20-gauge S-Monovettes. EDTA was used to prevent coagulation of the samples. Human platelets were isolated by differential centrifugation according to the following protocol:
Blood samples were centrifuged at 300 g for 10 minutes to produce a supernatant of platelet rich plasma. Platelet rich plasma was then centrifuged at 2,500 g for 15 minutes to produce a pellet of platelets. Platelets were harvested from the pellet and resuspended prior to use.
as §1
Human platelets collected as outlined above were activated by the addition of thrombin (0.1 u/ml for 30 minutes at 37° C.).
Platelets were activated with thrombin in the absence or presence of furin inhibitors. […] Active and total TGF-β in releasates were determined in the PAI/L bioassay. The results are shown in panel A of FIG. 2.

## aprotinin
[1]
  latent TGF-β activation: ineffective

## decanoyl-Arg-Val-Lys-Arg-chloromethyl ketone (Decanoyl-RVKR-CH2Cl) [dec-RVKR-cmk]
[2]
  activation in platelet-free releasates: inhibited, in a dose-dependent fashion
[1]; measured in hypotonic lysates, dose-dependent, FIG. 1 panel C
  generation of active TGF-β intracellularly: drastically reduced
[1]; platelet incubation with inhibitor, thrombin stimulation, dose-dependent, FIG. 1 panel C
  generation of active TGF-β in releasates: drastically reduced
[3]
  furin-like enzyme activity in cell lysates: inhibited
  furin-like enzyme activity in releasates: inhibited
[4]; remaining after inhibitor, believed to be activated prematurely during platelet preparation
  residual TGF-β present: 20-30%
[4]
  active TGF-β in releasates: considerably reduces

## LSKL peptide: inhibitor specific for TSP-1
[1]
  latent TGF-β activation: not significantly affected

## CC(C)CC(=O)N[C@H](C(=O)N[C@H](C(=O)N[C@@H](CC(C)C)[C@@H](O)CC(=O)N[C@@H](C)C(=O)N[C@@H](CC(C)C)[C@@H](O)CC(=O)O)C(C)C)C(C)C [pepstatin] (Isovaleryl-VV[Sta]A[Sta]-OH)
[1]
  latent TGF-β activation: ineffective

## α1-antitrypsin
[1]
  latent TGF-β activation: ineffective

## CC(=O)N[C@@H](CC(C)C)C(=O)N[C@@H](CC(C)C)C(=O)N[C@H](C=O)CCCNC(=N)N [leupeptin]
[1]
  latent TGF-β activation: ineffective

## Cl.NCCc1ccc(S(=O)(=O)F)cc1 [pefabloc]
[1]
  latent TGF-β activation: ineffective

## CC(C)C[C@H](NC(=O)[C@H]1O[C@@H]1C(=O)O)C(=O)NCCCCN=C(N)N [E-64]
[1]
  latent TGF-β activation: ineffective

## hexa-L-arginine (RRRRRR)
[2]
  activation in platelet-free releasates: inhibited, in a dose-dependent fashion
[3]
  furin-like enzyme activity in cell lysates: inhibited
  furin-like enzyme activity in releasates: inhibited
[4]
  active TGF-β in releasates: significantly reduced

## O=C[C@@H](O)[C@@H](O)[C@H](O)[C@H](O)COP(=O)(O)O [M6P, mannose-6-phosphate]
[1]
  latent TGF-β activation: not significantly affected
